Data as given in patent publication US9156877B2, “17-hydroxy-17-pentafluorethyl-estra-4,9(10)-dien-11-benzylidene derivatives, methods for the production thereof and use thereof for treating diseases” (Bayer Intellectual Property GmbH, priority 2009, dated 2015).

Key:
[1] = target: T1, human progesterone receptor B (Homo sapiens, UniProt P06401); assay: Progesterone receptor-antagonistic action in stably transfected SK-N-MC cells with MMTV-LUC reporter (PR-B); assay type: cell-based; conditions: antagonistic potency against 0.1 nmol/l promegestone, 24 hours, luciferase
T1 construct: expressed in transfected cells; host or cells: SK-N-MC human neuroblastoma cells, stably transfected with pRChPR-B-neo and pMMTV-LUC
T1 sequence (P06401 1-933): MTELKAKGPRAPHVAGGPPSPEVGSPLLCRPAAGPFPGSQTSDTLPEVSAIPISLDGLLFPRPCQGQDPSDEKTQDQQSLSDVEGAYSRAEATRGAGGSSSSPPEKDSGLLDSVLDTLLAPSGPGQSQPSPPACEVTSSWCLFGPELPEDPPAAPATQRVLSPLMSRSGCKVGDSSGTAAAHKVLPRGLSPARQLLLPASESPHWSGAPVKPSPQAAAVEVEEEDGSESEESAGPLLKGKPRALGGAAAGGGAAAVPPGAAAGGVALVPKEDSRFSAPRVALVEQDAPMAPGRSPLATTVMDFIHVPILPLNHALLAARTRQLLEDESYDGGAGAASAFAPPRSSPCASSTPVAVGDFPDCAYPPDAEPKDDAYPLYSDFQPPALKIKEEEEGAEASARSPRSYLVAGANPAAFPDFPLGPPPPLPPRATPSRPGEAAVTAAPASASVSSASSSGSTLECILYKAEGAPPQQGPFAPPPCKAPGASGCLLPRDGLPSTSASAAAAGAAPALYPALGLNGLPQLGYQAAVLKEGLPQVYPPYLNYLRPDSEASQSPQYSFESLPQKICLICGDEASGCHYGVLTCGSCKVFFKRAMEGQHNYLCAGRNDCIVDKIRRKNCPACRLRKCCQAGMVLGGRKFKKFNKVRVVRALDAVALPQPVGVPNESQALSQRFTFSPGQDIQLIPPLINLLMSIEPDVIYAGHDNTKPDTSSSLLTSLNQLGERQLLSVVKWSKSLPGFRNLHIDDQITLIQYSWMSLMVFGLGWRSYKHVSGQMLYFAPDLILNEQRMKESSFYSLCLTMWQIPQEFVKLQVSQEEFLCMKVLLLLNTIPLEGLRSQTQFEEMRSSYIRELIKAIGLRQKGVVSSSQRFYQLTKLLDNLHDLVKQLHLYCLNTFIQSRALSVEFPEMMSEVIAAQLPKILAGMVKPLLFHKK
Procedure: (§1) Determination of Progesterone Receptor-Antagonistic Action in Stable Transfectants of Human Neuroblastoma Cells (SK-N-MC Cells) with the Human Progesterone A or Progesterone B Receptor and an MN-LUC Reporter Construct
(§2) SK-N-MC cells (human neuroblastoma cells) which have been stably transfected with plasmids expressing the human progesterone receptor B (pRChPR-B-neo) or the human progesterone receptor A (pRChPR-A-neo) and a reporter construct (pMMTV-LUC) were incubated for 24 hours either in the absence (negative control) or in the presence of ascending amounts of the particular test compound (0.01 nmol/l, 0.1 nmol/l, 1 nmol/l, 10 nmol/l, 100 nmol/l and […]), in order to determine the agonistic efficacy. As a positive control of the reporter gene induction, the cells were treated with the synthetic gestagen promegestone (0.01 nmol/l, 0.1 nmol/l, 1 nmol/l, 10 nmol/l, 100 nmol/l and […]). To determine the antagonistic activity, the cells were treated with 0.1 nmol/l promegestone and additionally with ascending amounts of the particular test compound (0.01 nmol/l, 0.1 nmol/l, 1 nmol/l, 10 nmol/l, 100 nmol/l and […]). The activity of the reporter gene LUC (LUC=luciferase) was determined in the cell lysates and measured as RLU (relative light units). All measurements are reported as % efficacy and as EC50 and IC50 concentrations.

[2] = target: T2, human progesterone receptor A (Homo sapiens, UniProt P06401); assay: Progesterone receptor-antagonistic action in stably transfected SK-N-MC cells with MMTV-LUC reporter (PR-A); assay type: cell-based; conditions: antagonistic potency against 0.1 nmol/l promegestone, 24 hours, luciferase
T2 construct: expressed in transfected cells; host or cells: SK-N-MC human neuroblastoma cells, stably transfected with pRChPR-A-neo and pMMTV-LUC
T2 sequence (P06401 1-769 isoform P06401-2): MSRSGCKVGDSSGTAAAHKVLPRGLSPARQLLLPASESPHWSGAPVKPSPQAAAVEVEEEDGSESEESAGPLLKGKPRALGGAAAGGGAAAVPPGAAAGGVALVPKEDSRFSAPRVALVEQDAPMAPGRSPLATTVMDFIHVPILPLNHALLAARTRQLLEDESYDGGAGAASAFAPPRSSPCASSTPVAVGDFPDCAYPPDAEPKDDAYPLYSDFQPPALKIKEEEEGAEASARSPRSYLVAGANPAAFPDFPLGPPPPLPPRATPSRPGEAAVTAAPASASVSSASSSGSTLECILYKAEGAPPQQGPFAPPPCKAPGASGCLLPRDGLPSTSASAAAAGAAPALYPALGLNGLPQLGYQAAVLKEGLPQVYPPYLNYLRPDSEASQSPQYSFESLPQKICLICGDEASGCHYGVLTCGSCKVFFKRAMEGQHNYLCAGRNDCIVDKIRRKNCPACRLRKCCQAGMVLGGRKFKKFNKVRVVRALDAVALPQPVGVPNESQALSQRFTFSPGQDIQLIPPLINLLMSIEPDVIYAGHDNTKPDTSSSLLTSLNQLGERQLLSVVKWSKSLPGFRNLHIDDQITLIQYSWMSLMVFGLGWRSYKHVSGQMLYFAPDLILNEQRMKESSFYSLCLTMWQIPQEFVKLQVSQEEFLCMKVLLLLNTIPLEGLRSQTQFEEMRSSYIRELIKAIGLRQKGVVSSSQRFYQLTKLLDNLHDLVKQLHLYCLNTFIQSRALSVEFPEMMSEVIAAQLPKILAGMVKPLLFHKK
Procedure: as §1, §2

## COc1ccc(C/C=C/c2ccc([C@H]3C[C@@]4(C)[C@@H](CC[C@@]4(O)C(F)(F)C(F)(F)F)[C@@H]4CCC5=CC(=O)CCC5=C43)cc2)cc1 [Example 3, (8S,11R,13S,14S,17S)-17-hydroxy-11-{4-[(E)-3-(4-methoxyphenyl)-propenyl]phenyl}-13-methyl-17-pentafluoroethyl-1,2,6,7,8,11,12,13,14,15,16,17-dodecahydrocyclopenta[a]phenanthren-3-one]
[1]
  IC50: 1.8 nM
[2]
  IC50: 1.5 nM

## COC(=O)C(C/C=C/c1ccc([C@H]2C[C@@]3(C)[C@@H](CC[C@@]3(O)C(F)(F)C(F)(F)F)[C@@H]3CCC4=CC(=O)CCC4=C32)cc1)C(=O)OC [Example 4, 2-{(E)-3-[4-((8S,11R,13S,14S,17S)-17-hydroxy-13-methyl-3-oxo-17-pentafluoroethyl-2,3,6,7,8,11,12,13,14,15,16,17-dodecahydro-1H-cyclopenta[a]phenanthren-11-yl)phenyl]allyl}malonic acid dimethyl ester]
[1]
  IC50: 1.1 nM
[2]
  IC50: 1 nM

## C=C(C)c1ccc([C@H]2C[C@@]3(C)[C@@H](CC[C@@]3(O)C(F)(F)C(F)(F)F)[C@@H]3CCC4=CC(=O)CCC4=C32)cc1 [Example 11, (8S,11R,13S,14S,17S)-17-hydroxy-11-(4-isopropenylphenyl)-13-methyl-17-pentafluoroethyl-1,2,6,7,8,11,12,13,14,15,16,17-dodecahydrocyclopenta[a]phenanthren-3-one]
[1]
  IC50: 0.012 nM

## CCOC(=O)/C=C/c1ccc([C@H]2C[C@@]3(C)[C@@H](CC[C@@]3(O)C(F)(F)C(F)(F)F)[C@@H]3CCC4=CC(=O)CCC4=C32)cc1 [Example 12, (E)-3-[4-((8S,11R,13S,14S,17S)-17-hydroxy-13-methyl-3-oxo-17-pentafluoroethyl-2,3,6,7,8,11,12,13,14,15,16,17-dodecahydro-1H-cyclopenta[a]phenanthren-11-yl)phenyl]acrylic acid ethyl ester]
[1]
  IC50: 0.26 nM
[2]
  IC50: 0.13 nM

## CCOC(=O)/C=C/C=C/c1ccc([C@H]2C[C@@]3(C)[C@@H](CC[C@@]3(O)C(F)(F)C(F)(F)F)[C@@H]3CCC4=CC(=O)CCC4=C32)cc1 [Example 15, (2E,4E)-5-[4-((8S,11R,13S,14S,17S)-17-hydroxy-13-methyl-3-oxo-17-pentafluoroethyl-2,3,6,7,8,11,12,13,14,15,16,17-dodecahydro-1H-cyclopenta[a]phenanthren-11-yl)phenyl]penta-2,4-dienoic acid ethyl ester]
[1]
  IC50: < 0.01 nM
[2]
  IC50: 0.011 nM

## C=Cc1cccc([C@H]2C[C@@]3(C)[C@@H](CC[C@@]3(O)C(F)(F)C(F)(F)F)[C@@H]3CCC4=CC(=O)CCC4=C32)c1 [Example 19, (8S,11R,13S,14S,17S)-17-hydroxy-13-methyl-17-pentafluoroethyl-11-(3-vinylphenyl)-1,2,6,7,8,11,12,13,14,15,16,17-dodecahydrocyclopenta[a]phenanthren-3-one]
[1]
  IC50: 3 nM
[2]
  IC50: 3 nM

## C=C(C)c1cccc([C@H]2C[C@@]3(C)[C@@H](CC[C@@]3(O)C(F)(F)C(F)(F)F)[C@@H]3CCC4=CC(=O)CCC4=C32)c1 [Example 20, (8S,11R,13S,14S,17S)-17-hydroxy-11-(3-isopropenylphenyl)-13-methyl-17-pentafluoroethyl-1,2,6,7,8,11,12,13,14,15,16,17-dodecahydrocyclopenta[a]phenanthren-3-one]
[1]
  IC50: 11 nM
[2]
  IC50: 9 nM

## Cc1nc(/C=C/c2cccc([C@H]3C[C@@]4(C)[C@@H](CC[C@@]4(O)C(F)(F)C(F)(F)F)[C@@H]4CCC5=CC(=O)CCC5=C43)c2)cs1 [Example 24, (8S,11R,13S,14S,17S)-17-hydroxy-13-methyl-11-{3-[(E)-2-(2-methylthiazol-4-yl)vinyl]phenyl}-17-pentafluoroethyl-1,2,6,7,8,11,12,13,14,15,16,17-dodecahydrocyclopenta[a]phenanthren-3-one]
[1]
  IC50: 1 nM
[2]
  IC50: 1 nM

## Cc1nc2cc(/C=C/c3cccc([C@H]4C[C@@]5(C)[C@@H](CC[C@@]5(O)C(F)(F)C(F)(F)F)[C@@H]5CCC6=CC(=O)CCC6=C54)c3)ccc2s1 [Example 25, (8S,11R,13S,14S,17S)-17-hydroxy-13-methyl-11-{3-[(E)-2-(2-methylbenzothiazol-5-yl)vinyl]phenyl}-17-pentafluoroethyl-1,2,6,7,8,11,12,13,14,15,16,17-dodecahydrocyclopenta[a]phenanthren-3-one]
[1]
  IC50: 2 nM
[2]
  IC50: 1 nM

## COC(=O)c1cccc(/C=C/c2ccc([C@H]3C[C@@]4(C)[C@@H](CC[C@@]4(O)C(F)(F)C(F)(F)F)[C@@H]4CCC5=CC(=O)CCC5=C43)cc2)c1 [Example 30, 3-{(E)-2-[4-((8S,11R,13S,14S,17S)-17-hydroxy-13-methyl-3-oxo-17-pentafluoroethyl-2,3,6,7,8,11,12,13,14,15,16,17-dodecahydro-1H-cyclopenta[a]phenanthren-11-yl)phenyl]vinyl}benzoic acid methyl ester]
[1]
  IC50: 0.08 nM
[2]
  IC50: 0.09 nM

## C[C@]12C[C@H](c3ccc(/C=C/CNC(=O)Nc4ccccc4)cc3)C3=C4CCC(=O)C=C4CC[C@H]3[C@@H]1CC[C@@]2(O)C(F)(F)C(F)(F)F [Example 42, 1-{(E)-3-[4-((8S,11R,13S,14S,17S)-17-hydroxy-13-methyl-3-oxo-17-pentafluoroethyl-2,3,6,7,8,11,12,13,14,15,16,17-dodecahydro-1H-cyclopenta[a]phenanthren-11-yl)phenyl]allyl}-3-phenylurea]
[2]
  IC50: 0.1 nM

## COc1ccc(NC(=O)NC/C=C/c2ccc([C@H]3C[C@@]4(C)[C@@H](CC[C@@]4(O)C(F)(F)C(F)(F)F)[C@@H]4CCC5=CC(=O)CCC5=C43)cc2)cc1 [Example 54, 1-{(E)-3-[4-((8S,11R,13S,14S,17S)-17-hydroxy-13-methyl-3-oxo-17-pentafluoroethyl-2,3,6,7,8,11,12,13,14,15,16,17-dodecahydro-1H-cyclopenta[a]phenanthren-11-yl)phenyl]allyl}-3-(4-methoxyphenyl)urea]
[2]
  IC50: 0.1 nM

## C[C@]12C[C@H](c3ccc(/C=C/CNC(=O)Nc4ccc(N5CCCCC5)cc4)cc3)C3=C4CCC(=O)C=C4CC[C@H]3[C@@H]1CC[C@@]2(O)C(F)(F)C(F)(F)F [Example 58, 1-{(E)-3-[4-((8S,11R,13S,14S,17S)-17-hydroxy-13-methyl-3-oxo-17-pentafluoroethyl-2,3,6,7,8,11,12,13,14,15,16,17-dodecahydro-1H-cyclopenta[a]phenanthren-11-yl)phenyl]allyl}-3-(4-piperidin-1-ylphenyl)urea]
[2]
  IC50: 0.5 nM
